Data reported in publication PMC5602538, “Assessment of the Drug Interaction Potential of Unconjugated and GalNAc3-Conjugated 2′-MOE-ASOs” (Molecular Therapy. Nucleic Acids, 2017).
{GalNAc3} = trishexylamino-C6 triantennary GalNAc conjugate; e = 2'-O-(2-methoxyethyl) (MOE); d = 2'-deoxy (DNA)

Legend:
Type in all cases: in vitro ADME
OAT1 = system: T1, OAT1; assay: OAT1 substrate uptake study in MDCK cells; settings: 10 μM ASO
T1 construct: expressed in transfected cells; host or cells: MDCK-II
Experimental: (§1) A 96-well cell culture plate containing a monolayer of MDCK-II cells grown on a permeable support and a corresponding receiver tray was used. The basolateral compartment of the culture plate and wells were washed with warm HBSS three times, with wells of the culture plate serving as the apical compartment. The wash was aspirated by adding 150 μL of 37°C HBSS to both compartments. Plates were incubated at 37°C with orbital shaking at 60 rpm for 15 min for OAT1, OAT3, OCT1, OCT2, OATP1B1, and OATP1B3 (±5 min). The pre-incubation buffer from both compartments was aspirated and 150 μL of the following was added to the basal compartment. For the probe substrate transport assay, HBSS in each well contained one of following probe substrates (positive control for transport), OCT1, 2 μM [^3H]-MPP^+; OCT2, 10 μM [^14C]-metformin; OAT1, 2 μM [^3H]-p-aminohippurate; OAT3, 10 μM [^3H]-p-aminohippurate; OATP1B1, 2 μM [^3H]-estradiol-17 β-D-glucuronide; and OATP1B3, 2 μM [^3H]-cholecystokinin octapeptide (CCK-8). […] Inhibition studies contained HBSS in each well, the probe substrate, and 100 μM of each test article, whereas substrate studies contained HBSS in each well and 10 μM of each test article. […] Samples containing probe substrate were added to 200 μL of scintillation fluid and counted on a 1450 Microbeta (PerkinElmer), whereas samples containing the test article were kept frozen. Test article concentrations, including control samples, were evaluated by an LC-MS method.
(§2) Signal to noise for probe substrates was calculated by dividing the uptake of the probe substrate in transporter-expressing cells by the uptake of probe substrate in control cells not expressing the transporter of interest. Percent inhibition was calculated by dividing the net-transporter-mediated substrate uptake in the presence of the test article or the reference inhibitor by the net-transporter-mediated substrate uptake in the absence of the inhibitor according to the equation: %inhibition=100−(100×(transporter-mediateduptake)withinhibitor/(transporter-mediateduptake)withoutinhibitor).

OAT3 = system: T2, OAT3; assay: OAT3 substrate uptake study in MDCK cells; settings: 10 μM ASO
T2 construct: expressed in transfected cells; host or cells: MDCK-II
Experimental: as §1, §2

OCT1 = system: T3, OCT1; assay: OCT1 substrate uptake study in MDCK cells; settings: 10 μM ASO
T3 construct: expressed in transfected cells; host or cells: MDCK-II
Experimental: as §1, §2

OATP1B1 = system: T4, OATP1B1; assay: OATP1B1 substrate uptake study in MDCK cells; settings: 10 μM ASO
T4 construct: expressed in transfected cells; host or cells: MDCK-II
Experimental: as §1, §2

OATP1B3 = system: T5, OATP1B3; assay: OATP1B3 substrate uptake study in MDCK cells; settings: 10 μM ASO
T5 construct: expressed in transfected cells; host or cells: MDCK-II
Experimental: as §1, §2

BCRP = system: T6, BCRP; assay: BCRP substrate study, bi-directional flux in MDCK cells; settings: 10 μM ASO, Papp B to A / Papp A to B
T6 construct: expressed in transfected cells; host or cells: MDCK-II cells
Experimental: (§3) MDCK-MDR1 cells and MDCK-II cells transfected with BCRP were washed with HBSS at 37°C. Wells of the culture plate served as the apical compartment, and 150 μL of HBSS solutions was added to the apical wells. These solutions also contain one of the following: vehicle (for probe substrate controls), 100 μM test article (for test article inhibition experiments), 1 μM Ko143 (for BCRP inhibition), or 3 μM elacridar (for P-gp inhibition). A 96-well receiver tray was prepared with each well containing 300 μL of buffer solution corresponding to the apical wells. Receiver tray wells served as the basal compartment. The plate and receiver tray were assembled and incubated at 37°C for 30 min. The solution was then aspirated from the apical compartment and the 96-well plate was removed from the receiver tray. Donor and receiver wells for inhibition or donor (containing substrate) and receiver (without substrate) wells for substrate studies were then prepared for bi-directional flux studies. For the probe substrate transport assays, HBSS in each donor well contained one of the following probe substrates: BCRP, 2 μM [^3H]-prazosin; or P-gp, 100 nM [^3H]-quinidine. For positive control inhibition assays, HBSS contained the reference inhibitor in both donor and receiver wells, with the probe substrate only in donor wells. […] These samples were counted on a 1450 Microbeta (PerkinElmer). For samples containing test articles, samples were quantitated using LC-MS.
(§4) For BCRP and P-gp, apparent permeability Papp was determined using the equation Papp=(Vr/(A×C0))×(Cr/Δt) whereby Papp is the apparent permeability, Vr is the volume of the receiver compartment (mL), C0 is the initial concentration of the donor solution, A is the monolayer area (cm^2), Cr is the receiver well concentration at the end of the incubation, and Δt represents the change in time from t = 0 (s). The efflux ratio (ER) was determined by dividing Papp in the B→A direction by that in the A→B direction as: ER=Papp(B→A)/Papp(A→B).

P-gp = system: T7, P-gp; assay: P-gp substrate study, bi-directional flux in MDCK-MDR1 cells; settings: 10 μM ASO, Papp B to A / Papp A to B
T7 construct: host or cells: MDCK-MDR1 (MDCK cells stably transfected with MDR1)
Experimental: as §3, §4

Row | Substance | OAT1-mediated uptake relative to corresponding controls (OAT1) [fold] | OAT3-mediated uptake relative to corresponding controls (OAT3) [fold] | OCT1-mediated uptake relative to corresponding controls (OCT1) [fold] | OATP1B1-mediated uptake relative to corresponding controls (OATP1B1) [fold] | OATP1B3-mediated uptake relative to corresponding controls (OATP1B3) [fold] | Efflux ratio, BCRP (BCRP) | Efflux ratio, P-gp (P-gp)
1 | ISIS 304801: 20-mer (5-10-5) 2′-MOE gapmer PS backbone antisense inhibitor of apoC-III, sequence AGCTTCTTGTCCAGCTTTAT (sugars from the 5' end e5 d10 e5, all phosphorothioate, methylation of C not given here) | < 2 | < 2 | < 2 | < 2 | < 2 | ≤ 2.0 | ≤ 2.0
2 | ISIS 420915: 20-mer 2′-MOE gapmer PS backbone antisense inhibitor of transthyretin, sequence TCTTGGTTACATGAAATCCC (all phosphorothioate, sugars by position and methylation of C not given here; 2'-MOE gapmer) | < 2 | < 2 | < 2 | < 2 | < 2 | ≤ 2.0 | ≤ 2.0
3 | ISIS 681257: 20-mer 2′-MOE gapmer PS/PO mixed backbone ASO conjugated to 5′-trishexylamino GalNAc3, targets Lp(a), sequence TGCTCCGTTGGTGCTTGTTC (5' {GalNAc3}, sugars by position and backbone not given here; 2'-MOE gapmer with mixed PS/PO backbone) | < 2 | < 2 | < 2 | < 2 | < 2 | ≤ 2.0 | ≤ 2.0
